Data set [1] concerns Gaucher mice (D409V/null). Kind of data set: Separate and sequential enzyme and substrate reduction therapy in Gaucher mice. The class given is in vivo, mouse. The source says:
Procedures involving animals were reviewed and approved by the Institutional Animal Care and Use Committee (IACUC) at Genzyme Corporation following the guidelines issued by the Association for Assessment and Accreditation of Laboratory Animal Care (AAALAC). […] The study had 6 groups of mice with group A being sacrificed after 2 weeks to provide baseline levels of tissue glucosylceramide. Groups B, C, and D all received recombinant human glucocerebrosidase (Genzyme Corp., Cambridge, Mass.) (10 mg/kg) intravenously via a tail-vein (100 μL) every 2 days for a total of 8 injections. Group B was sacrificed at the end of this regimen (at the same time as group A) to provide enzyme-reduced levels of tissue glucosylceramide. Groups D and E were both fed Formula (I) Hemitartrate (Genzyme Corp., Cambridge, Mass.) as a component of the pellet food diet. The drug was formulated at 0.075% (w/w) in standard 5053 mouse chow (TestDiet, Richmond, Ind.) and provided ad libitum. […] Group F received no treatment and was sacrificed along with groups C, D and E 12 weeks after the start of the study. Food consumption and mouse weights were monitored three times per week to determine drug intake and the potential impact of the drug on overall health. Animals were killed by carbon dioxide inhalation and their tissues harvested immediately. Half of each tissue was snap frozen on dry ice and stored at −80° C. until ready for further processing. The other half was processed for histological analysis.
Glucosylceramide levels were quantified by mass spectrometry as described previously (see K. McEachern, et al., J. Gene. Med. 8 (2006) 719-729; T. Doering, J. Biol. Chem. 274 (1999) 11038-11045, the entire teachings of both are incorporated herein by reference). A known mass of tissue was homogenized in 2:1 (v/v) chloroform:methanol and incubated at 37° C. for 15 min. Samples were centrifuged and the supernatants were extracted with 0.2 volumes of water overnight at 4° C. The samples were centrifuged, the aqueous phase was discarded, and the organic phase was dried down to a film under nitrogen. For electrospray ionization mass spectrometry (ESI/MS) analysis, tissue samples were reconstituted to the equivalent of […] original tissue weight in 1 ml chloroform:methanol (2:1, v/v) and vortexed for 5 min. Aliquots (40 μL) of each sample were delivered to Waters total recovery vials and 50 μL of a 10 μg/mL d3-C16-GL-1 internal standard (Matreya, Inc., Pleasant Gap, Pa.) was added. Samples were dried under nitrogen and reconstituted with 200 μL of 1:4 (v/v) DMSO:methanol. ESI/MS analysis of glucosylceramides of different carbon chain lengths was performed on a Waters alliance HPLC (Separation Module 2695) coupled to a Micromass Quattro Micro system equipped with an electrospray ion source. Lipid extract samples (20 μL) were injected onto a C8 column ([…] i.d; Phenomenex, Torrance, Calif.) at 45° C. and eluted with a gradient of 50 to 100% acetonitrile (2 mM ammonium acetate, 0.1% formic acid) at 0.5 mL/min. The first 0.5 min. was held at 50% organic and then quickly switched to 100% for the final 3.5 min. The source temperature was held constant at 150° C. and nitrogen was used as the desolvation gas at a flow rate of 670 L/h. The capillary voltage was maintained at 3.80 KV with a cone voltage of 23 V, while the dwell time for each ion species was 100 ms. Spectra were acquired by the MRM mode to monitor eight dominant isoforms (C16:0, C18:0, C20:0, C22:1, C22:0, C22:1-OH, C24:1, and C24:0). Quantitation of glucosylceramide was based on the sum of these eight isoforms relative to the internal standard, with a calibration curve ranging from 0.1 to 10 μg/mL.
For histological analysis, tissues were fixed in zinc formalin (Electron Microscopy Sciences, Hatfield, Pa.) at room temperature for 24 h, then stored in PBS at 4° C. until ready for further processing. […]

The target in data set [2] is T1, glucosylceramide synthase (Homo sapiens, UniProt Q16739).
T1 construct: microsomes were prepared from human melanoma A375 cells by sonication and centrifugation; endogenous in cells; host or cells: human melanoma A375 cells (microsomes)
T1 sequence (Q16739 1-394): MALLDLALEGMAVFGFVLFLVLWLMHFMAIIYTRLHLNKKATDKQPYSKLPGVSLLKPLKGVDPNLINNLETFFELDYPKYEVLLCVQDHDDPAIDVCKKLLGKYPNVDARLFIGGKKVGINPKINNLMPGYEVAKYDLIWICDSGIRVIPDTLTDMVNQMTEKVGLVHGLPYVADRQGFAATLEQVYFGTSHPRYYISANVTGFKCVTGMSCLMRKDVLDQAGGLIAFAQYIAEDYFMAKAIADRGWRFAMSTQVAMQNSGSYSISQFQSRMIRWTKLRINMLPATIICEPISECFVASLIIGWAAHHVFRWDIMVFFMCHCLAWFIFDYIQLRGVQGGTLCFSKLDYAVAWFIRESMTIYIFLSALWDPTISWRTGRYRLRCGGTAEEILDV
Kind of data set: Glucosylceramide synthase inhibition in microsomes from human melanoma A375 cells. The class given is biochemical. The procedure: An alternative assay for activity measured inhibition of glucosylceramide synthase in human cell derived microsomes. In this assay, microsomes were prepared from human melanoma A375 cells by sonication and centrifugation. […] Following the incubation, fluorescently labeled glucosylceramide and unreacted ceramide were separated and quantitated by reverse-phase HPLC and fluorescence detection.

Data set [3] can be described thus: Drug interaction study with ketoconazole (CYP3A4 and p-glycoprotein inhibitor) in healthy subjects. The class given is in vivo, human. Particulars: 100 mg twice daily with ketoconazole 400 mg once daily.
[4] abbreviates: group D: 2 weeks enzyme, then 150 mg/kg/day in food for 10 weeks.
The mark [5] stands for this setting: group E: 150 mg/kg/day in food alone for 12 weeks.

Consider `CCCCCCCC(=O)N[C@H](CN1CCCC1)[C@H](O)c1ccc2c(c1)OCCO2` [Formula (I) Hemitartrate], for which the “liver histopathology, CD68-positive Gaucher cells” value in data set [1] (2 weeks enzyme, then substrate reduction therapy for 10 weeks) is recorded as “increase in Gaucher cells was negated”. For the same molecule, the “weight gain versus regular chow” value in data set [1] (chow containing 150 mg/kg/day) was “no discernible differences in weight gain”. Further, the “liver histopathology, CD68-positive Gaucher cells” value in data set [1] (drug alone for 12 weeks) was “reduced accumulation of the substrate”. The “lung GL1 levels versus untreated controls (F)” value in data set [1] (group D: 2 weeks enzyme, then 150 mg/kg/day in chow for 10 weeks) is given as “significantly lower”. Moreover, in data set [1] (setting [4]), the “liver GL1 levels versus untreated controls (F)” value is given as “significantly lower” and the “splenic GL1 levels versus untreated control (F)” value is recorded as “significantly lower”. For the same molecule, in data set [1] (setting [5]), the “liver GL-1 levels versus untreated, age-matched controls (F)” value was “the difference was not significant”; the “pulmonary GL1 levels versus untreated controls (F)” value is “effective in lowering pulmonary GL1 levels”; the “splenic GL1 levels versus untreated controls (F)” value is listed as “the difference was not significant”. The “differential in concentration required to inhibit glucosylceramide synthase compared to any of the other enzymes tested” value in data set [2] is listed as “approximately 40,000”. Also, the “increase in exposure of the free base in plasma at steady state with ketoconazole” value in data set [3] is reported as 4 fold.
